In US20110212040A1, “STABILIZED SUNSCREEN COMPOSITIONS” (priority 2010, published 2011):
“Also recorded” adds a separate entry of the source.

Legend:
Format in all cases: physicochemical
[1] = Stabilization of avobenzone in presence of single carotenoids; settings: for protective activity vs avobenzone degradation: lycopene 1.6 mg/mL in squalane
Method: (§1) Key elements for this test are: consistent irradiation (known and consistent light source and positioning of samples with respect to the light source); optimal exposure of the sample to UV light (thin but consistent layer sample, in a flat vessel with no high walls which could screen out UV light); consistent sampling (especially recovery of irradiated material for analysis). Under the instant method, irradiation takes place in the Innova 4340 incubator, fitted with UV tubes (UVC: Osram Puritec-HNS3OVG13-G30T8/OF; UVB: Voltarc E312/F30T8; UVA: Sylvania F30T8/350BL)—allowing for intense, known, reproducible and even irradiation (a known illuminant is the single source of light—a wide light source and the incubator's metallic walls also help achieve even illumination). Samples are exposed in Brand plastic vial caps made of polyethylene, 26 mm diameter, 5 mm wall height, 400 μL sample volume, in triplicates, generally introduced as solutions in suitable oil carriers)—enabling irradiation of a relatively even and thin layer while allowing consistent sample recovery.
(§2) Analysis of the avobenzone content of the samples was done by UV spectroscopy (absorption @ 350 nm for avobenzone; sample dilution ×400 in hexanes). As phytofluene absorbs in the UV range relevant to our measure of avobenzone, blank TCLC samples (i.e. without avobenzone) were irradiated in parallel with test samples and absorption @ 350 nm was measured before and after irradiation. This absorption was deducted from the avobenzone absorption data, producing the corrected data shown here (unless noted otherwise).
Based on the above results, degradation of avobenzone was next measured in the presence of single carotenoids, specifically: phytoene (PE), phytofluene (PF), zeta-carotene (ZC) and Lycopene (LY).
Carotenoids levels: for the purposes of these experiments, phytoene was tested at 1.3 mg/mL; phytofluene was tested at 0.3 mg/mL; zeta-carotene and lycopene were tested at 1.6 mg/mL.
Irradiation was carried out with combined UVA+UVB (4:2, 18 h) and UVA+UVB+UVC (3:2:1, 10 h).

[2] = Effect of phytoene/phytofluene levels and ratio variations on avobenzone stabilization; settings: combined UVA+UVB+UVC 10 h; low 0.3 mg/mL, high 1.3 mg/mL; listed as PE
Method: as §1, with “Samples are exposed in Brand plastic vial caps made of polyethylene, 26 mm diameter, 5 mm wall height, 400 μL sample volume, in triplicates, generally introduced as solutions in suitable oil carriers)—enabling irradiation of a relatively even and thin layer while allowing consistent sample recovery.” left out
as §2, with “This absorption was deducted from the avobenzone absorption data, producing the corrected data shown here (unless noted otherwise).” left out

[3] = UV absorbance spectra / absorption maximum; settings: FIG. 10
[4] = 3% avobenzone cream, in vitro SPF/UVA-PF and photo stability (Colipa 2009); settings: UVA dose 10 J/cm^2, Suntest
Method: Following the convincing results from the studies described above, a preliminary study with a basic cream containing 3% avobenzone labelled 703-1, to which phytoene and phytofluene (0.0075%), was added and labelled 703-2, was conducted to determine the contribution of phytofluene to sun protection and photo stability of avobenzone under UVA following the Colipa 2009 in vitro Standard Guidelines. Approximately 1.7 mg/cm^2 of each composition is applied to 5 PMMA plates (Helioplates-HD-6, Helioscreen®, Source: Labsphere, North Sutton, N.H.), respectively, and allowed to equilibrate for at least 15 minutes. Absorbance spectra from 5 locations on each plate are measured using a UV2000 Sunscreen Analyzer (Labsphere, North Sutton, N.H.). […] Plate temperatures are 25-35° C. Mean UVA protection factors at each UV dose are then computed for each test product, using Colipa UVA Protection Factor Test Method Spreadsheet, and mean absorbance spectra from 290 to 400 nm is obtained.

SMILES: CC(C)=CCC/C(C)=C/C=C/C(C)=C/C=C/C(C)=C/C=C/C=C(C)/C=C/C=C(C)/C=C/C=C(\C)CCC=C(C)C [Lycopene]
- protective activity vs avobenzone degradation ([1]; combined UVA+UVB 4:2, 18 h): slight protective activity
- protective activity vs avobenzone degradation ([1]; combined UVA+UVB+UVC 3:2:1, 10 h): no significant activity

SMILES: CC(C)=CCC/C(C)=C/CC/C(C)=C/C=C/C(C)=C/C=C/C=C(C)/C=C/C=C(\C)CC/C=C(\C)CCC=C(C)C [Zeta-carotene, zeta-carotene]
- stabilizing / protective effect on avobenzone ([1]; UVA+UVB (18 h) and UVA+UVB+UVC (10 h), not distinguished, phytoene 1.3, phytofluene 0.3, zeta-carotene 1.6 mg/mL): some protective activity

SMILES: CC(C)=CCC/C(C)=C/CC/C(C)=C/CC/C(C)=C/C=C/C=C(\C)CC/C=C(\C)CC/C=C(\C)CCC=C(C)C [phytoene]
- protective activity vs degradation of avobenzone [2]: level-dependent; also recorded: roughly comparable activities
- λmax of absorbance spectra [3]: 286 nm

SMILES: CC(C)=CCC/C(C)=C/CC/C(C)=C/C=C/C(C)=C/C=C/C=C(\C)CC/C=C(\C)CC/C=C(\C)CCC=C(C)C [phytofluene]
- λmax of absorbance spectra [3]: 348 nm
- boost to UVA-PF [4]: addition to UVA-Pf
